In PubChem BioAssay (NCI):
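Where inhibition never reached the appropriate level, the endpoint shown equals the highest concentration tested. Otherwise, values were interpolated linearly from a five-concentration, 48-hour dose response in 96-well plates. GI50: concentration for 50% inhibition of growth. Definition used: TGI = concentration required for complete inhibition of growth.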

Key:
Test in all cases: NCI tumour cell line growth inhibition, 48 h
M14 melanoma = system: M14 melanoma
HS 578T breast = system: HS 578T breast
SN12C renal = system: SN12C renal
U251 CNS = system: U251 CNS
CCRF-CEM leukemia = system: CCRF-CEM leukemia
UO-31 renal = system: UO-31 renal
IGROV1 ovarian = system: IGROV1 ovarian
K-562 leukemia = system: K-562 leukemia
HL-60(TB) leukemia = system: HL-60(TB) leukemia
A549 NSCLC = system: A549 NSCLC
TK-10 renal = system: TK-10 renal
UACC-62 melanoma = system: UACC-62 melanoma
HOP-62 NSCLC = system: HOP-62 NSCLC
OVCAR-4 ovarian = system: OVCAR-4 ovarian
A498 renal = system: A498 renal
KM12 colon = system: KM12 colon
MALME-3M melanoma = system: MALME-3M melanoma
HT29 colon = system: HT29 colon
SK-OV-3 ovarian = system: SK-OV-3 ovarian
SR leukemia = system: SR leukemia
SK-MEL-2 melanoma = system: SK-MEL-2 melanoma
DU-145 prostate = system: DU-145 prostate
NCI-H460 lung = system: NCI-H460 lung
MOLT-4 leukemia = system: MOLT-4 leukemia
OVCAR-3 ovarian = system: OVCAR-3 ovarian
MDA-MB-435 = system: MDA-MB-435
SK-MEL-5 melanoma = system: SK-MEL-5 melanoma
SF-268 CNS = system: SF-268 CNS

COc1ccc(C(O)c2cc3c(N)c(C(=O)Nc4cccc(OC)c4)sc3nc2C)cc1 (stereo unspecified)
GI50 (M14 melanoma): 1280 nM | TGI (M14 melanoma): 4650 nM | GI50 (HS 578T breast): 1650 nM | TGI (HS 578T breast): 4670 nM | GI50 (SN12C renal): 1240 nM | TGI (SN12C renal): 3380 nM | GI50 (U251 CNS): 1340 nM | TGI (U251 CNS): 7370 nM | GI50 (CCRF-CEM leukemia): 1310 nM | TGI (CCRF-CEM leukemia): 4640 nM | GI50 (UO-31 renal): 838 nM | TGI (UO-31 renal): 1720 nM | GI50 (IGROV1 ovarian): 1170 nM | TGI (IGROV1 ovarian): 3460 nM | GI50 (K-562 leukemia): 1200 nM | TGI (K-562 leukemia): 7200 nM | GI50 (HL-60(TB) leukemia): 1350 nM | TGI (HL-60(TB) leukemia): > 50000 nM | GI50 (A549 NSCLC): 5460 nM | TGI (A549 NSCLC): > 50000 nM | GI50 (TK-10 renal): 5990 nM | TGI (TK-10 renal): > 50000 nM | GI50 (UACC-62 melanoma): 1160 nM | TGI (UACC-62 melanoma): 3070 nM | GI50 (HOP-62 NSCLC): 1940 nM | TGI (HOP-62 NSCLC): > 50000 nM | GI50 (OVCAR-4 ovarian): 2170 nM | TGI (OVCAR-4 ovarian): > 50000 nM | GI50 (A498 renal): > 50000 nM | TGI (A498 renal): > 50000 nM | GI50 (KM12 colon): 1030 nM | TGI (KM12 colon): 2410 nM | GI50 (MALME-3M melanoma): 1910 nM | TGI (MALME-3M melanoma): 28900 nM | GI50 (HT29 colon): 1360 nM | TGI (HT29 colon): 3700 nM | GI50 (SK-OV-3 ovarian): 11500 nM | TGI (SK-OV-3 ovarian): > 50000 nM | GI50 (SR leukemia): 301 nM | TGI (SR leukemia): 7510 nM | GI50 (SK-MEL-2 melanoma): 49800 nM | TGI (SK-MEL-2 melanoma): > 50000 nM | GI50 (DU-145 prostate): 2070 nM | TGI (DU-145 prostate): > 50000 nM | GI50 (NCI-H460 lung): 1970 nM | TGI (NCI-H460 lung): > 50000 nM | GI50 (MOLT-4 leukemia): 1430 nM | TGI (MOLT-4 leukemia): 4590 nM | GI50 (OVCAR-3 ovarian): 1260 nM | TGI (OVCAR-3 ovarian): 3230 nM | GI50 (MDA-MB-435): 1110 nM | TGI (MDA-MB-435): 2180 nM | GI50 (SK-MEL-5 melanoma): 1690 nM | TGI (SK-MEL-5 melanoma): 5420 nM | GI50 (SF-268 CNS): 1770 nM | TGI (SF-268 CNS): 37900 nM
